Earlier results as cited in the CATMoS acute toxicity set (Mansouri et al. 2021).
Several values for one entry are separate records, joined by “and”; a condition that tells them apart may be missing. Equal values may be shown once.

Assay: rat acute oral toxicity
Settings: in vivo

Going from `O=S(=O)(O)c1ccc2c(c1)-c1nc-2nc2[nH]c(nc3nc(nc4[nH]c(n1)c1ccccc41)-c1ccccc1-3)c1ccccc21` to `O=S(=O)(c1ccccc1)c1ccc(Cl)cc1`, the LD50 falls from 3600 mg/kg to 1400 mg/kg (2.6-fold).

`Cc1cccc(C#N)c1C` and `Cc1cccc(I)c1` are within 1.5-fold of each other in LD50: 3000 mg/kg for the first, 2300 mg/kg for the second.

Compared with `CC(C)c1cccc(C(C)(C)O)c1`, `CC(C)c1ccc(N)cc1` is 6.1-fold lower in LD50: 6000 mg/kg for the first, 985 mg/kg for the second.

First: COCCCO
Second: C=CC(=O)OCCOCC
The LD50 of the first is 5.3-fold higher: 5710 mg/kg for the first, 1070 mg/kg for the second.

Compared with `CCOP(=S)(OCC)SC1CCOC1=O` (stereo not drawn), `CCOP(=O)(OCC)SCSP(=S)(OCC)OCC` is 28-fold lower in LD50: 1000 mg/kg for the first, 35.1 mg/kg for the second.

`C=Cc1cccc(Cl)c1` and `N#CC=Cc1ccccc1` are within 1.5-fold of each other in LD50: 5200 mg/kg for the first, 4150 mg/kg for the second.

Compared with `CCN(CC)CCNC(=O)c1cc([N+](=O)[O-])c(N(C)C)cc1OC`, `CCCCCCCCCCOc1c(OC)cc(C(N)=O)cc1OC` is 1.9-fold higher in LD50: 856 mg/kg for the first, 1650 mg/kg for the second.

Going from `CCOP(=O)(OCC)Oc1ccc2c(C)c(Cl)c(=O)oc2c1` to `CCOC(=O)CSP(=O)(OCC)OCC`, the LD50 rises from 10 mg/kg to 45 mg/kg (4.5-fold).

Compared with `ClCCC(Cl)(Cl)Cl`, `CCCSC(=O)Cl` is 2.3-fold higher in LD50: 490 mg/kg for the first, 1130 mg/kg for the second.

`CC(C)N1C(=O)c2ccccc2NS1(=O)=O` and `CCc1c(C)nc2ccccn2c1=O` are within 1.5-fold of each other in LD50: 1100 mg/kg for the first, 1000 mg/kg for the second.

Going from `CN(CC(=O)N1CCOCC1)Cc1c(Cl)cccc1NC(=O)c1ccccc1` to `CCOC(=O)C1(c2ccccc2)CCN(CCOCc2ccccc2)CC1`, the LD50 falls from 4200 mg/kg to 284 mg/kg (15-fold).

Going from `CNC(=S)NNc1cc(C(F)(F)F)cc(C(F)(F)F)c1` to `CCn1c(=O)c2ccccc2n(-c2cccc(C(F)(F)F)c2)c1=O`, the LD50 rises from 414 mg/kg to 1500 mg/kg (3.6-fold).

Going from `C=CC(=O)N(CC)CC` to `CCCCOC(=O)/C=C\C(=O)OCCCC`, the LD50 rises from 1420 mg/kg to 3700 mg/kg (2.6-fold).

Compared with `CCCCCCCCCc1cc(C)cc(Cc2cc(C)cc(CCCCCCCCC)c2O)c1O`, `CCC(CC)COC(=O)CCCCC(=O)OCC(CC)CC` is 5.9-fold lower in LD50: 33000 mg/kg for the first, 5620 mg/kg for the second.

`CCC1(CC)C(=O)C=CN(CN2CCNCC2)C1=O` and `CCN1CCOCC1` are within 1.5-fold of each other in LD50: 1340 mg/kg for the first, 1780 mg/kg for the second.

First: C=C(C)C(=O)OCCN(CCOC(=O)C(=C)C)CCOC(=O)C(=C)C
Second: COC(=O)CCC(Cl)C(C)=O (stereo not drawn)
The LD50 of the first is 5.5-fold higher: 11200 mg/kg for the first, 2050 mg/kg for the second.

Going from `CCCC(=O)Nc1c(I)cc(I)c(CC(CC)C(=O)O)c1I` (stereo not drawn) to `Cc1nn(-c2cc(NS(C)(=O)=O)c(Cl)cc2Cl)c(=O)n1C(F)F`, the LD50 falls from 6500 mg/kg to 2860 mg/kg (2.3-fold).

`OCC=CCO` and `CCN(CCO)c1cccc(C)c1` are within 1.5-fold of each other in LD50: 1250 mg/kg for the first, 1370 mg/kg for the second.

First: CCOP(=O)(OCC)SCS(=O)CC (stereo not drawn)
Second: CCOC(=O)C(Br)C#N (stereo not drawn)
The LD50 of the first is 420-fold lower: 1 mg/kg for the first, 420 mg/kg for the second.

Going from `CN(C)S(=O)(=O)c1c(Cl)c(Cl)c(Cl)c2[nH]c(C(F)(F)F)nc12` to `CCN(CC)CCOc1nn(-c2cccc(C(F)(F)F)c2)c2ncccc12`, the LD50 rises from 4.77 mg/kg to 1200 mg/kg (250-fold).

First: CCCc1ccccc1
Second: CC(=O)CNC(C)(C)Cc1ccccc1
The LD50 of the first is 27-fold higher: 6040 mg/kg for the first, 225 mg/kg for the second.

`COc1cc(C(=O)N2CCN(C(=O)c3cc(OC)c(OC)c(OC)c3)CC2)cc(OC)c1OC` and `CCC(C)C(C(=O)OC1CC[N+](C)(C)CC1)c1ccccc1` (stereo not drawn) are within 1.5-fold of each other in LD50: 1000 mg/kg for the first, 720 mg/kg for the second.

Going from `O=C(C=Cc1ccccc1O)OC(=O)C=Cc1ccccc1O` to `c1ccc(C2=NCOCS2)cc1`, the LD50 falls from 1510 mg/kg to 650 mg/kg (2.3-fold).

First: CCCOC(C1=NCCN1)c1ccccc1 (stereo not drawn)
Second: c1ccc(C2CCCCC2)c(OCC2CNCCO2)c1 (stereo not drawn)
The LD50 of the first is 3.2-fold lower: 350 mg/kg for the first, 1120 mg/kg for the second.

First: Nc1cccc2c3c([nH]c12)CCCC3
Second: O=C1OC(=O)C2CCCCC12 (stereo not drawn)
The LD50 of the first is 2.9-fold lower: 1380 mg/kg for the first, 4040 mg/kg for the second.

Compared with `CCOC(=O)C1CCCCC1`, `CNC(=O)ON=C1CS(=O)CCS1` (stereo not drawn) is 320-fold lower in LD50: 3960 mg/kg for the first, 12.3 mg/kg for the second.

For `CN(C)CCCN1c2ccccc2Sc2ccccc21`, the LD50 is given as 350 mg/kg and 400 mg/kg.
